Assay results as given in patent US20140121220A1, “CRYSTALS OF PHENYLPYRROLE DERIVATIVE” (Daiichi Sankyo Company, Limited, priority 2011, published 2014).
Values after ≈ are worked out from the molar mass of the structure shown. Where two headings read alike, the source gives them in different places.

Columns and labels:
[1] = Solubility test (Test Example 4); format: physicochemical; details: 4 mg in 2 mL; for Concentration (solubility): 37° C., 30 minutes; for solubility at 30 min: 37 °C, thermodynamic from solid, read-out: Concentration (solubility)
Method: The Form I crystal (4 mg), the Form II crystal (4 mg) and Compound II (4 mg) were respectively dissolved in 2 mL of water, Japanese Pharmacopoeia Elution Test Solution 1 (JP1), Japanese Pharmacopoeia Elution Test Solution 2 (JP2), Fasted State Simulated Intestinal Fluid (FaSSIF) and Fed State Simulated Intestinal Fluid (FeSSIF). After stirring vigorously for 30 seconds every 5 minutes in a constant temperature water bath at 37° C., a portion of the supernatant was sampled 30 minutes later and filtered with a syringe filter. The filtrate was suitably diluted for use as the sample solution.
The sample solution was measured using HPLC under the following conditions.
HPLC system: Waters Alliance
Column: Waters, XBridge C18 3.5 μm
Column temperature: 40° C.
Solvent A: 5 mM aqueous ammonium hydrogencarbonate solution
The gradient program is as indicated below.

[2] = Hygroscopicity test (Test Example 3); format: physicochemical; details: 25° C., 10 to 90% RH
Method: The sample was weighed in a glass sample cup, and weight was measured under the conditions indicated below.
Measuring instrument: SGA-100 (VTI Corp.)
Measuring temperature: 25° C.
Minimum exposure time: 15 min
Maximum exposure time: 120 min
Step transition condition: within 0.03 wt %
The appearance of the sample was observed following completion of measurement.

[3] = Evaluation of in vivo absorption
[4] = test system: spontaneously diabetic rats (ZDF-Lepr^fa/CrlCrlj); assay: Blood glucose lowering activity test (Test Example 6); format: in vivo, rat; details: for Area under blood glucose curve: 0 to 6 hours after oral administration, fasting, Form I crystal 10 mg/kg, Compound II 8.3 mg/kg (equivalent as free form), average of five
Method: Male, 9-week-old, spontaneously diabetic rats (ZDF-Lepr^fa/CrlCrlj) were used.
A crystal of the compound of the present invention in the form of the Form I crystal at 10 mg/kg or the free form thereof in the form of Compound II at 8.3 mg/kg (calculated based on the free form, corresponding to the equivalent of 10 mg/kg of the Form I crystal) was respectively suspended in a 20% aqueous HP-β-cyclodextrin solution (hereinafter referred to as “vehicle”) and orally administered under fasting conditions.
Blood glucose levels were measured in accordance with ordinary methods before administration of the compounds (at 0 hour) and at 0.5, 1, 2, 4 and 6 hours after administration. Namely, the tips of the rat tails (about 1 mm) were severed and blood collected with hematocrit tubes subjected to anticoagulation treatment with heparin were centrifuged followed by measuring the resulting plasma with the Glucoroder F (A&T Corporation). The areas under blood glucose curves from 0 to 6 hours after administration were calculated using the resulting blood glucose values.
The results of a blood glucose lowering activity test on each group administered with the Form I crystal, Compound II or vehicle only were as shown in Table 8.
Furthermore, the values shown in Table 8 are all the average values of test result values obtained using five spontaneously diabetic rats (ZDF-Lepr^fa/CrlCrlj).

[5] = Fasted State Simulated Intestinal Fluid (FaSSIF)
[6] = Fed State Simulated Intestinal Fluid (FeSSIF)
[7] = Japanese Pharmacopoeia Elution Test Solution 1 (JP1)
[8] = Japanese Pharmacopoeia Elution Test Solution 2 (JP2)

Concentration (solubility) [1, 5] [µg/mL]	Concentration (solubility) [1, 6] [µg/mL]	Concentration (solubility) [1, 7] [µg/mL]	Concentration (solubility) [1, 8] [µg/mL]	Concentration (solubility) ([1]; Water) [µg/mL]	Hygroscopicity (moisture sorption-desorption behavior) [2]	solubility at 30 min ([1]; Fasted State Simulated Intestinal Fluid (FaSSIF), fassif, Fasted State Simulated Intestinal Fluid (FaSSIF)) [µg/mL]	solubility at 30 min ([1]; Japanese Pharmacopoeia Elution Test Solution 1 (JP1), pH 1.2, simulated gastric fluid, Japanese Pharmacopoeia Elution Test Solution 1 (JP1)) [µg/mL]	SMILES	Blood concentrations in comparison with Compound II [3]	Area under blood glucose curve [4] [mg/dl × hr]	Blood glucose lowering activity compared with Compound II ([4]; oral, 10 mg/kg Form I crystal vs 8.3 mg/kg Compound II)
20.5	1381	>1500	14.1	>1500	did not demonstrate hygroscopicity	–	–	C[C@H]1CN=C(c2ccc(-c3cc(Oc4cnc(S(C)(=O)=O)cn4)cc(O[C@@H](C)CO)c3)[nH]2)O1 [Form II crystal, (2S)-2-(3-{5-[(5S)-5-Methyl-4,5-dihydro-1,3-oxazol-2-yl]-1H-pyrrol-2-yl}-5-{[5-(methylsulfonyl)pyrazin-2-yl]oxy}phenoxy)propan-1-ol monomethanesulfonate]	high blood concentrations in comparison with Compound II	–	–
–	222	–	5.87	5.59	–	12 (≈ 25.4 µM)	> 1500	C[C@H]1CN=C(c2ccc(-c3cc(Oc4cnc(S(C)(=O)=O)cn4)cc(O[C@@H](C)CO)c3)[nH]2)O1 [Compound II, (2S)-2-(3-{5-[(5S)-5-Methyl-4,5-dihydro-1,3-oxazol-2-yl]-1H-pyrrol-2-yl}-5-{[5-(methylsulfonyl)pyrazin-2-yl]oxy}phenoxy)propan-1-ol, reference compound]	–	661.8 ± 26.9	–
20.4	1145	>1500	11.8	>1500	did not demonstrate hygroscopicity	–	–	C[C@H]1CN=C(c2ccc(-c3cc(Oc4cnc(S(C)(=O)=O)cn4)cc(O[C@@H](C)CO)c3)[nH]2)O1 [Form I crystal, (2S)-2-(3-{5-[(5S)-5-Methyl-4,5-dihydro-1,3-oxazol-2-yl]-1H-pyrrol-2-yl}-5-{[5-(methylsulfonyl)pyrazin-2-yl]oxy}phenoxy)propan-1-ol monomethanesulfonate]	high blood concentrations in comparison with Compound II	529.0 ± 24.5	superior to that of the free form
